Experimental findings from ChEMBL document CHEMBL1122556, “Design, synthesis, and binding characteristics of an opiate receptor mimetic peptide” (J Med Chem, 1984) are described below.

By Ki is commonly meant the equilibrium dissociation constant of an inhibitor or competing ligand from its target. Read a high Ki as a looser hold on the target.

The structures appear in SMILES notation. Residues, ends and D or L forms follow the SMILES beside them. *: point of attachment. Desaminotyrosyl = O=C(CCc1ccc(O)cc1)*; Hydrocinnamoyl = O=C(CCc1ccccc1)*

The test is described as follows: Compound was evaluated for the binding strength to receptor Mimetic peptide (RMP) at 5 degree celsius, Ki was determined from its potency in displacing [Leu]-enkephalin binding.
Take `CSCC[C@H](NC(=O)[C@H](Cc1ccccc1)NC(=O)CNC(=O)CNC(=O)[C@@H](N)Cc1ccc(O)cc1)C(=O)O`: the Ki turned out to be 49.5 µM. Take `CC(C)C[C@H](NC(=O)[C@H](Cc1ccccc1)NC(=O)CNC(=O)CNC(=O)[C@H](N)Cc1ccccc1)C(=O)O`: the Ki came to 95.5 µM. In turn, `CC(C)C[C@@H](NC(=O)[C@@H](Cc1ccccc1)NC(=O)CNC(=O)CNC(=O)[C@H](N)Cc1ccc(O)cc1)C(=O)O` registered an inhibitory constant (Ki) of 400 µM.

`CC(C)C[C@H](NC(=O)[C@H](Cc1ccccc1)NC(=O)CNC(=O)[C@@H](N)Cc1ccc(O)cc1)C(=O)O` had an inhibition constant Ki of 160 µM. Molecule `N=C(N)NCCC[C@H](NC(=O)[C@H](Cc1ccccc1)NC(=O)[C@@H](N)Cc1cnc[nH]1)C(=O)N[C@@H](Cc1c[nH]c2ccccc12)C(=O)O` gave an inhibitory constant (Ki) of 5950 µM. `CC(C)C[C@H](NC(=O)[C@H](Cc1ccccc1)NC(=O)CNC(=O)CNC(=O)CCc1ccc(O)cc1)C(=O)O` (Desaminotyrosyl-GGFL-OH) yielded a Ki of 205 µM.

The molecule `CC(C)C[C@H](NC(=O)[C@H](Cc1ccccc1)NC(=O)CNC(=O)CNC(=O)CCc1ccccc1)C(=O)O` (Hydrocinnamoyl-GGFL-OH) came in with a Ki of 620 µM.

With `C=CCN1CC[C@]23c4c5ccc(O)c4O[C@H]2C(=O)CC[C@@]3(O)[C@H]1C5` [NALOXONE], affinity was put at a Ki of 7460 µM.
